Measurements published in EP2654730B1, “HIGH DRUG LOAD PHARMACEUTICAL FORMULATIONS COMPRISING DRONEDARONE AND ITS PHARMACEUTICALLY ACCEPTABLE SALTS” (KRKA, d.d., Novo mesto, priority 2010, dated 2012).
Where a name gives a salt, the structure may show the parent alone.

Columns and labels:
[1] = Particle size d90 by laser light scattering (Malvern Mastersizer MS 2000); type: physicochemical; details: particles after crystallization and Jetmill MC-50 micronization
Text: As used herein d90<x means that at least 90% by volume of the particles have a particle size below x. The particle size can be determined by laser light scattering for instance using a Malvern Mastersizer Apparatus MS 2000 equipped with a Hydro S dispersion unit. Silicon fluid F10 may be used as dispersion medium.

[2] = Specific surface area of dronedarone HCl particles (BET method); type: physicochemical; details: particles after crystallization and Jetmill MC-50 micronization
Text: The specific surface area can be determined using the BET method.

[3] = Dissolution test of Dronedarone HCl 400 mg tablets (Apparatus 2 paddle); type: physicochemical; details: at 60 minutes, paddle 75 rpm, 1000 ml Buffer Solution pH 4.5
Procedure: The dissolution profiles of several of the pharmaceutical compositions exemplified above are determined.
Dissolution conditions for Dronedarone HCl 400 mg tablets: • Apparatus: 2 - Paddle (USP and Ph. Eur.) • Rotation speed: 75 rpm • Medium: 1000 ml Buffer Solution pH 4.5
API 1 or API 2 was included in the pharmaceutical composition as disclosed in example 17.
The pharmaceutical compositions used in dissolution test shown in Figure 2 comprised different surfactants or no surfactant. The pharmaceutical compositions were prepared according to examples 16A-D, 17A and 18A by using API 1, API 2 or API 3.

[4] = aqueous media, pH 3-5 (maximal); cited from earlier work

Row | SMILES | Particle size d90 [1] [µm] | Specific surface area [2] [m^2/g] | dissolution rate ([3]; compositions of examples 16A-D, 17A and 18A, compared with compositions prepared from API 2 or API 3) | dissolution rate ([3]; tablet composition of example 17, compared with same composition prepared from API 2) | solubility [4] [µg/mL]
1 | CCCCc1oc2ccc(NS(C)(=O)=O)cc2c1C(=O)c1ccc(OCCCN(CCCC)CCCC)cc1.Cl [API 3] | 7.4 | 6.0 | – | – | –
2 | CCCCc1oc2ccc(NS(C)(=O)=O)cc2c1C(=O)c1ccc(OCCCN(CCCC)CCCC)cc1.Cl [API 1] | 5.1 | 8.3 | substantial lower dissolution rate | substantial lower dissolution rate | –
3 | CCCCc1oc2ccc(NS(C)(=O)=O)cc2c1C(=O)c1ccc(OCCCN(CCCC)CCCC)cc1 [dronedarone hydrochloride, N-(2-butyl-3-(p-(3-(dibutylamino)propoxy)benzoyl)-5-benzofuranyl)methanesulfonamide] | – | – | – | – | 1000 to 2000
4 | CCCCc1oc2ccc(NS(C)(=O)=O)cc2c1C(=O)c1ccc(OCCCN(CCCC)CCCC)cc1.Cl [API 2] | 7.1 | 6.2 | – | – | –
